Laboratory results: patent publication US4220755A, “Fortimicin B derivatives and process for production thereof” (Abbott Laboratories, priority 1976, dated 1980)
≈ marks a conversion by molar mass, not a printed value. Read-outs that look alike come from different tables or passages of the source.

How the values were obtained:
Escherichia coli Juhl = assay: ED50 in infected mice; format: in vivo, ddY-strain mice; details: ip, 168 h, read-out: ED50 EC
Protocol: (§1) In this experiment, one group consisting of five ddY-strain mice is used. The microorganisms shown below are inoculated into each animal. One hour after the inoculation, test compounds dissolved in distilled water for injection are injected intraperitoneally to test animals by one shot. The test animals are observed one week after the injection, and the ED50 is calculated according to the method of Behrens-Karber.
*^2 EC means Escherichia coli Juhl. 2.1 × 10^4 cells are
inoculated into each mouse.

[1] = system: Pseudomonas aeruginosa R4 KY8511; assay: MIC, agar dilution method, pH 7.2; format: cell-based
Protocol: (§2) Measurement was carried out according to the agar dilution method, using a medium of pH 8.0, or the Japanese Antibiotic Medicament Standard, using a medium of pH 7.2 Units are in mcg/ml.
(§3) 4: gentamicin, producing acetyltransferase type I.

[2] = system: Escherichia coli R19 KY8348; assay: MIC, agar dilution method, pH 7.2; format: cell-based
Protocol: as §2, §3

[3] = system: Salmonella typhosa KY4278 ATCC9992; assay: MIC, agar dilution method, pH 8.0; format: cell-based; details: Salmonella enterica, pH 8, read-out: Minimum inhibition concentration (MIC), ST
Protocol: as §2
S.T.: Salmonella typhosa KY4278 ATCC9992

in vivo = details: mouse, iv
Protocol: In this experiment, one group consisting of five ddY-strain mice is used. Test compounds dissolved in 0.2 ml of distilled water for injection are injected intravenously into each animal in 10 seconds. The LD50 is calculated according to the method of Behrens-Karber.

[4] = system: Klebsiella pneumoniae 8045; assay: ED50 in infected mice; format: in vivo, ddY-strain mice; details: 168 h, read-out: ED50 KP
Protocol: as §1
*^1 KP means Klebsiella pneumoniae 8045. 1.3 × 10^5 cells
are inoculated into each mouse.

Bacillus subtilis KY4273 = assay: MIC, agar dilution method, pH 8.0; format: cell-based; details: pH 8.0; Bacillus subtilis KY4273; read-out: Minimum inhibition concentration (MIC), BS
Protocol: as §2
B.S.: Bacillus subtilis KY4273

[5] = Stability in alkaline aqueous conditions; format: physicochemical; details: for Stability in aqueous solution: free base
Protocol: The stability of 4-N-acylfortimicin B derivatives in aqueous alkaline conditions is poor. […] Therefore, purification of these compounds under basic conditions (for example, column chromatography with Amberlite CG-50, eluting with aqueous ammonia) is not practical.
In contrast with the instability of 4-N-acylfortimicin B derivatives, 4-N-alkylfortimicin B derivatives are so stable that no decomposition occurs even in aqueous barium hydroxide solution at reflux temperature for 18 hours. Therefore, in the case of 4-N-alkylfortimicin B, any substituents can be introduced at 4-N-position of fortimicin B, even though such substituents can not be introduced as the acyl type to such position due to the aforementioned instability.

various microorganisms = assay: Antibacterial activity (general statements); format: cell-based; details: qualitative statement
Protocol: as §2

[6] = R4KY8511, pH 7.2, P. aeruginosa R4 KY8511, 4**: gentamicin, producing acetyltransferase type I, read-out: Minimum inhibition concentration (MIC)
[7] = R19KY8348, pH 7.2, E. coli R19 KY8348, 4**: gentamicin, producing acetyltransferase type I, read-out: Minimum inhibition concentration (MIC)

| Compound | ED50 (Escherichia coli Juhl; mice, intraperitoneal one shot 1 hour after inoculation of Escherichia coli Juhl (2.1 × 10^4 cells), sulfate, one week observation) [mg/kg] | MIC [1, 6] [µg/mL] | MIC [2, 7] [µg/mL] | MIC [3] [µg/mL] | LD50 (in vivo) [mg/kg] | ED50 ([4]; ip, mice, intraperitoneal one shot 1 hour after inoculation of Klebsiella pneumoniae 8045 (1.3 × 10^5 cells), sulfate, one week observation) [mg/kg] | MIC (Bacillus subtilis KY4273) [µg/mL] | ED50 (Escherichia coli Juhl; Escherichia coli) [mg/kg] | MIC ([1]; R4KY8511, pH 7.2, read-out: Minimum inhibition concentration (MIC)) [µg/mL] | MIC ([2]; R19KY8348, pH 7.2, read-out: Minimum inhibition concentration (MIC)) [µg/mL] | Stability in aqueous solution ([5]; pH 10, 100° C., 4 hours) | Stability in aqueous solution ([5]; pH 10, room temperature, 2 weeks) | Stability under strongly alkaline conditions [5] | ED50 ([4]; Klebsiella pneumoniae, 8045, ip) [mg/kg] | Antibacterial activity (various microorganisms) |
| --- | --- | --- | --- | --- | --- | --- | --- | --- | --- | --- | --- | --- | --- | --- | --- |
| CO[C@H]1[C@@H](O)[C@H](N)[C@@H](O[C@H]2O[C@H]([C@H](C)N)CC[C@H]2N)[C@H](O)[C@@H]1N(C)C[C@@H](O)CCN [Compound 27, 4-N-[(S)-4-amino-2-hydroxybutyl]fortimicin B] | 2.81 | > 100 | > 100 | 0.16 (≈ 0.367 µM) | 135 | 1.88 | 0.04 (≈ 0.0918 µM) | – | – | – | – | – | – | – | – |
| CO[C@H]1[C@@H](O)[C@H](N)[C@@H](O[C@H]2O[C@H]([C@H](C)N)CC[C@H]2N)[C@H](O)[C@@H]1N(C)C(=O)CN [Compound 2, 4-N-glycylfortimicin B, reference compound] | – | – | – | 0.16 (≈ 0.395 µM) | 330 | – | 0.04 (≈ 0.0986 µM) | 5.06 | > 100 | > 100 | almost completely decomposed | almost completely decomposed | slightly unstable | 2.06 | have antibacterial activity |
| CO[C@H]1[C@@H](O)[C@H](N)[C@@H](O[C@H]2O[C@H]([C@H](C)N)CC[C@H]2N)[C@H](O)[C@@H]1N(C)C(=O)CNC(N)=O [Compound 3, 4-N-hydantoylfortimicin B, reference compound] | – | > 100 | > 100 | 0.32 (≈ 0.713 µM) | – | – | 0.32 (≈ 0.713 µM) | – | – | – | – | – | slightly unstable | – | have antibacterial activity |
